Here are results for nine compounds from publication PMC5783350, “Development of an activity-based probe for acyl-protein thioesterases” (PLoS ONE, 2018).

SMILES strings stand for the structures. “And” between values parts separate entries of the source, which are not always exact repeats. Identical values can stand only once.

In assay [1] the target is T1, HsAPT1 (Homo sapiens, UniProt O75608). Put plainly: 4-NPO esterase activity assay, recombinant HsAPT1. Format: biochemical. Also noted: made in house; host or cells: E. coli BL21(DE3)pLysS. The text has this: (§1) We recently performed a phenotypic screen to identify small-molecule modulators of host cell invasion by the apicomplexan parasite T. gondii. The small-molecules in this directed screen were expected to covalently modify protein targets in an activity-dependent manner. Unexpectedly, this screen not only identified inhibitors of parasite invasion, but also compounds that enhanced host cell invasion. Enhancer compounds were all structurally similar substituted chloroisocoumarins. Using an alkynylated version of the lead enhancer compound (JCP174), we identified the phenotypically relevant target of the enhancer phenotype as the previously uncharacterized thioesterase TgPPT1 [12]. TgPPT1 is the orthologue of the human depalmitoylase HsAPT1, sharing 33% identity by BLAST analysis. […] Therefore, we screened a focused library of substituted chloroisocoumarins to identify compounds that inhibited HsAPT1 and HsAPT2 activity. […] To measure the enzymatic activity of recombinant HsAPT1 and HsAPT2, we used the previously reported substrate, 4-nitrophenyl octanoate (4-NPO), in which enzymatic cleavage of the ester linkage can be measured by UV/Vis spectroscopy upon release of 4-nitrophenolate (Fig 1A). Using this activity readout, we performed our screen with recombinant HsAPT1 and HsAPT2 using a focused library of 100 substituted chloroisocoumarins (Fig 1B). Compounds that produced >50% inhibition of either HsAPT1 or HsAPT2 activity relative to the DMSO control at 10 μM were then re-screened across a range of concentrations to determine in vitro IC50 values (Fig 1C and 1D). Compounds with IC50 values <10 μM for both HsAPT1 and HsAPT2 were scored as hits. According to these criteria, our screen achieved a hit rate of 7% (Table 1). […] We next tested the potency of JCP174 for both enzymes with increasing preincubation times from 30 minutes to 6 hours. The potency of JCP174 increased with longer pre-incubation times for both targets, indicating an irreversible covalent mechanism (S1 Table). […] (S1 Table).
T1 sequence (O75608 whole entry): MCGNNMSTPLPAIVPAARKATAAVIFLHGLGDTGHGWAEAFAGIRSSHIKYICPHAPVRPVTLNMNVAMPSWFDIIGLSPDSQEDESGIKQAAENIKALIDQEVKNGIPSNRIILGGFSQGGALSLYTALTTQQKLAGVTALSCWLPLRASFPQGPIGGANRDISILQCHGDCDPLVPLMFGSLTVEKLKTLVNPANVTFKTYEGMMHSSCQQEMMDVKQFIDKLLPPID
(§2) The 4-nitropenhyl octanoate (4-NPO) activity assay was modified from Dekker et al.. Briefly, 50 μL 20 mM HEPES, 150 mM NaCl, 0.01% v/v Triton-X 100, pH 7.4 buffer with the indicated concentrations of inhibitor or buffer control was added to 96-well plates. To each well, 30 μL of recombinantly expressed enzyme diluted to 1 μM in 20 mM HEPES, 150 mM NaCl, 0.01% v/v Triton-X 100, pH 7.4 buffer was added. The inhibitor and enzyme reaction was incubated at 37°C for 30 minutes before 20 μL of 4-NPO (3.0 mM) was added to the reaction in 20 mM HEPES, 150 mM NaCl, 0.25% v/v Triton-X 100, pH 7.4 buffer. The reaction progress was measured using a Cytation 3 plate reader at 401 nm at 1-minute intervals for 40 minutes.

Assay [2] deals with T2, HsAPT2 (Homo sapiens, UniProt O95372). Description: 4-NPO esterase activity assay, recombinant HsAPT2. The class given is biochemical. Also noted: made in house; host or cells: E. coli BL21(DE3)pLysS.
T2 sequence (O95372 whole entry): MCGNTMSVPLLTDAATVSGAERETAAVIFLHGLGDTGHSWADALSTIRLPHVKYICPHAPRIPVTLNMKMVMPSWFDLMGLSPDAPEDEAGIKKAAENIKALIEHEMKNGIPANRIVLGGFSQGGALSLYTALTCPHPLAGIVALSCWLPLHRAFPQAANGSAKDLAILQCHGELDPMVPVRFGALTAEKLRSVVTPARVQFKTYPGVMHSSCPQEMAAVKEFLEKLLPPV
Source text: as §1, §2

Assay [3] relates to TgPPT1. Description: In-gel labeling of recombinant TgPPT1 with JCP174-BT. Format: binding, Toxoplasma gondii. To be noted: 1 μM probe.
The test system of assay [4] is TgPPT1. The class given is cell-based, Toxoplasma gondii.
The test system of assay [5] is HsAPT1 and HsAPT2 in intact U-2 OS cells. Description: Intact mammalian cell labeling, in-gel fluorescence. The class given is cell-based, human.
In assay [6] the target is T1, HsAPT1. Description: FP-rhodamine ABP competition labeling, U-2 OS (HsAPT1 band). The class given is cell-based. To be noted: intact U-2 OS cells pretreated 1 hour, washed, lysates labeled with FP-rho.
Assay [7] concerns the target T2, HsAPT2. Put plainly: FP-rhodamine ABP competition labeling, U-2 OS (HsAPT2 band). To be noted: intact U-2 OS cells pretreated 1 hour, washed, lysates labeled with FP-rho. The class given is cell-based.
[8] abbreviates: rHsAPT1, 4-NPO substrate, 30 minutes preincubation at 37°C.
[9] abbreviates: rHsAPT2, 4-NPO substrate, 30 minutes preincubation at 37°C.

What is called IC50 is the midpoint of a concentration-inhibition curve. With `O=c1oc(Cl)c(Cl)c2ccccc12` [DCI, dichloroisocoumarin, reference compound], the IC50 amounted to 1700 nM on HsAPT1 [1] (setting [8]) and 2700 nM on HsAPT2 [2] (setting [9]).

For `CCOc1oc(=O)c2cc(NC(=S)Nc3ccccc3)ccc2c1Cl` [JCP154], the concentration for half-maximal inhibition (IC50) on HsAPT1 [1] (setting [8]) amounted to 1800 nM; on HsAPT2 [2] (setting [9]) it was 2900 nM.

With `COc1ccc(-c2ccc3n2[B-](F)(F)[N+]2=C(C)C(CCC(=O)NCCCn4cc(CCOc5oc(=O)c6cc(N)ccc6c5Cl)nn4)=C(C)C2=C3)cc1` [JCP174-BODIPY TMR], the “Covalent labeling of active site mutant TgPPT1 S128A” value in the assay with TgPPT1 [3] (recombinant TgPPT1 S128A) is given as “did not label the active site mutant”. For the same compound, the “Covalent labeling of wild-type TgPPT1” value with TgPPT1 [3] (recombinant TgPPT1 WT) is “covalently modified”. In addition, the “Labeling of TgPPT1 in intact T. gondii tachyzoites” value in the assay on TgPPT1 [4] is “strong labeling of TgPPT1 in intact cells”. In assay [5], the “Labeling of HsAPT1 and HsAPT2 in intact U-2 OS cells” value was “labeled APT1 and APT2 in intact cells”. In addition, the IC50 on HsAPT1 [1] (setting [8]) was found to be 3000 nM; on HsAPT2 [2] (setting [9]), 1800 nM.

As for `C#CCCOc1oc(=O)c2cc(N)ccc2c1Cl` [JCP174-alk, 3-(3-Butynoxy)-4-chloro-7-amino-isocoumarin], the IC50 on HsAPT1 [1] (setting [8]) is 925 nM and 930 nM; on HsAPT2 [2] (setting [9]) it was 498 nM and 500 nM.

Regarding `O=C(O)c1cccc(NC(=S)Nc2ccc3c(Cl)c(OCCBr)oc(=O)c3c2)c1` [JCP342], the IC50 worked out at 1500 nM at HsAPT1 [1] (setting [8]) and 5200 nM at HsAPT2 [2] (setting [9]).

In the case of `O=c1oc(OCCBr)c(Cl)c2ccc(NC(=S)Nc3ccccc3)cc12` [JCP343], the IC50 at HsAPT1 [1] (setting [8]) is 1400 nM; on HsAPT2 [2] (setting [9]), 9100 nM.

As to `O=C(O)c1ccc(NC(=S)Nc2ccc3c(Cl)c(OCCBr)oc(=O)c3c2)cc1` [JCP345], the IC50 came to 7100 nM at HsAPT1 [1] (setting [8]) and 8500 nM at HsAPT2 [2] (setting [9]).

Regarding `CC(CBr)Oc1oc(=O)c2cc(N)ccc2c1Cl` (stereo not shown) [JCP362], the IC50 was 1200 nM at HsAPT1 [1] (setting [8]) and 950 nM on HsAPT2 [2] (setting [9]).

Turning to `CCCCCCCCCC[C@@H]1C(=O)O[C@H]1CCc1ccc(OC)c(OC)c1` [Palmostatin B, palmostatin B, reference compound], the “Competition for FP-rho labeling of HsAPT1” value at HsAPT1 [6] is recorded as “competed for the same two species”. Further, the “Competition for FP-rho labeling of HsAPT2” value on HsAPT2 [7] is on record as “competed for the same two species”. Further, the IC50 at HsAPT1 [1] (preincubation time 2 hr) amounted to 2500 nM; on HsAPT1 [1] (preincubation time 6 hr) it was 6800 nM; at HsAPT1 [1] (setting [8]) it was 310 nM; on HsAPT2 [2] (preincubation time 2 hr), 700 nM; on HsAPT2 [2] (preincubation time 6 hr), 1600 nM; at HsAPT2 [2] (setting [9]) it was 320 nM.
